Data on eleven molecules can be found in patent US20160046618A1, “Cyclopropyl Fused Thiazin-2-Amine Compounds as Beta-Secretase Inhibitors and Methods of Use” (AMGEN INC., priority 2014, published 2016).

Read-outs that look alike come from different tables or passages of the source.

Assay [1] has as its system Aβ40 in conditioned medium of cells stably expressing Amyloid Precursor Protein (APP). The assay can be described thus: In vitro BACE-1 cell-based assay (Aβ40 sandwich ELISA). The following applies: read-out: IC50 IP (μM) BACE1 cell. The method, boiled down: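 Read-out: time-resolved fluorescence (Streptavidin-Europium) of Aβ40 captured by pAb40 and detected with biotinylated 6E10 from supernatants of APP-stable cells. Cells were exposed to compound for 24 h, 10-point dose response, top dose 100 μM or 10 μM, 0.1% DMSO. IC50 fitted to percent of control.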
(In general: In an ELISA, binding on a coated surface is turned into a signal by an enzyme label.)

In assay [2] the target is human recombinant BACE1 (Homo sapiens (Human), UniProt P56817). The assay can be described thus: In vitro enzymatic BACE1 FRET assay. The following applies: read-out: IC50 IP (μM) BACE1 enzyme. It counts as biochemical. The method, boiled down:
(§1)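 Read-out: dequenched fluorescence, excitation 488 nm, emission 590 nm, after proteolysis of a quenched peptide spanning the BACE cleavage site. Substrate at 50 nM, 1 h incubation, termination by Tris addition to neutral pH.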

Assay [3] relates to Aβ 40 in rat brain. The assay can be described thus: In vivo inhibition of beta-secretase: Aβ40 reduction in rat brain. The following applies: 10 mpk, after 4 h. The gist of the method: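 Rats were dosed by oral gavage at up to 100 mg/kg in 2% HPMC, 1% Tween80, pH 2.2, with vehicle-only controls. Supernatant Aβ40 was measured by ECL sandwich ELISA with biotinylated-4G8 capture and C-terminal Fab40 detection.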

Assay [4] has as its system Aβ 40 in rat CSF. The assay can be described thus: In vivo inhibition of beta-secretase: Aβ40 reduction in rat CSF. The following applies: 10 mpk, after 4 h. The gist of the method: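 Male Sprague Dawley rats (200 g) dosed orally in 2% HPMC, 1% Tween80, pH 2.2, at 3, 10 or 30 mg/kg; CSF and brain taken 4 h later. Brain homogenate centrifuged at 355,000 g; Aβ40 measured by ECL sandwich ELISA (4G8 capture, Abeta40 C-terminal Fab detection), as % reduction versus vehicle controls.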

Assay [5] addresses Recombinant Cat D (Homo sapiens (Human), UniProt P07339). The assay can be described thus: In vitro enzymatic Cathepsin D (Cat D) FRET assay. The class given is biochemical. The following applies: read-out: IC50 IP (μM) CatD. The method, boiled down: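 Human Cat D expressed in CHO cells was incubated for one hour in 0.05 M citrate pH 3.5, 5 mM CHAPS, 10% DMSO final, with 20 nM quenched FRET peptide substrate. Reactions were stopped with Tris buffer raising pH to neutrality. Cleavage was read as fluorescence at excitation 500 nm, emission 580 nm.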

In assay [6] the target is human recombinant BACE2 (Homo sapiens (Human), UniProt Q9Y5Z0). The assay can be described thus: In vitro enzymatic BACE2 FRET assay. It counts as biochemical. Conditions: read-out: IC50 IP (μM) BACE2 enzyme. The gist of the method: as §1
human recombinant BACE2, sequence (Q9Y5Z0 63-518): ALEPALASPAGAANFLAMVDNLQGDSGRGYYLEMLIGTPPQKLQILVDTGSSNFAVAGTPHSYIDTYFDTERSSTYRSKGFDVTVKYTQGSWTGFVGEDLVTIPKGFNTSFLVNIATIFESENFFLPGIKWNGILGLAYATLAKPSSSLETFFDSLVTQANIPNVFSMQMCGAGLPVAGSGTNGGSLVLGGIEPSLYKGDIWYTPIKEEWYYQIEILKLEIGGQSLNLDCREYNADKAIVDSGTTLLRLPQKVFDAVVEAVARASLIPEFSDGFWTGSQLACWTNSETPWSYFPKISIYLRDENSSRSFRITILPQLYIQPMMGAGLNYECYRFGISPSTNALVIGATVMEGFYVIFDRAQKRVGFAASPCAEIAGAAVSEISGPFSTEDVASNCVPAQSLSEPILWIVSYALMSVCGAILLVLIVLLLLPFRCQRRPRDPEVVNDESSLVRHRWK

Recombinant Cat D, sequence (P07339 65-412): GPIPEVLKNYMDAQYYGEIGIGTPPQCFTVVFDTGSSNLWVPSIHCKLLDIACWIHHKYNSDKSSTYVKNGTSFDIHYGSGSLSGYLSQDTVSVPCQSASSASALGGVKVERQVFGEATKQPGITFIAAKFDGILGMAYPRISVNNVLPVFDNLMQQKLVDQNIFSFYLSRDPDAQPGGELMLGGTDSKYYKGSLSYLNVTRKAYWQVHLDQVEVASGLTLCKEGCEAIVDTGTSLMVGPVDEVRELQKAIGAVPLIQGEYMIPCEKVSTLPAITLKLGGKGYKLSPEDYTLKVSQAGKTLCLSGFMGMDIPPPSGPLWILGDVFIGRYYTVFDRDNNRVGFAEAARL
human recombinant BACE1, sequence (P56817 46-501): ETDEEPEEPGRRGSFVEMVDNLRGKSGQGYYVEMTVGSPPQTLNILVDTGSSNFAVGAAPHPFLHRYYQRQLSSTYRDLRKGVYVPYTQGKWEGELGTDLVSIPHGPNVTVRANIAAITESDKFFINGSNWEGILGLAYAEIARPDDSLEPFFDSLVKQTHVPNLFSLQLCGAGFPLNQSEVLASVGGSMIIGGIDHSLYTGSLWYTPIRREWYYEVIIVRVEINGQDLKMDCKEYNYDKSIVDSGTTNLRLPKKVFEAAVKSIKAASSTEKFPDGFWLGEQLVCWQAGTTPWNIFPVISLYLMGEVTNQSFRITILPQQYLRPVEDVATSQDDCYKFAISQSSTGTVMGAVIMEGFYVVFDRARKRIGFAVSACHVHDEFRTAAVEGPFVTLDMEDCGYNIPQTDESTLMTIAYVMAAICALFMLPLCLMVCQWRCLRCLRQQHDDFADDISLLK

What is called IC50 is the concentration that gives 50% inhibition. On to `C[C@]1(c2cc(Nc3nccc4cc(C#N)cnc34)cc(F)c2F)N=C(N)S[C@@]2(CO)C[C@H]21` [Example 54, 8-((3-((1S,5S,6S)-3-amino-1-(hydroxymethyl)-5-methyl-2-thia-4-azabicyclo[4.1.0]hept-3-en-5-yl)-4,5-difluorophenyl)amino)-1,7-naphthyridine-3-carbonitrile], for which the IC50 in assay [1] (BACE1 cell-based assay) was 0.00196 µM; in assay [2] (BACE1 FRET enzyme assay) it was 0.00139 µM; in assay [5] (Cathepsin D FRET enzyme assay), > 44.4 µM; in assay [6] (BACE2 FRET enzyme assay) it was < 0.00203 µM. Besides, the “% Aβ 40 reduction in rat brain at 10 mpk” value in assay [3] stood at 19%. For the same molecule, the “% Aβ 40 reduction in rat CSF at 10 mpk” value in assay [4] turned out to be 18%.
Take `C#CCOc1cnc2c(Nc3cc(F)c(F)c([C@@]4(C)N=C(N)S[C@@]5(CO)C[C@H]54)c3)nccc2n1` [Example 82, ((1S,5S,6S)-3-amino-5-(2,3-difluoro-5-((2-(2-propyn-1-yloxy)pyrido[3,4-b]pyrazin-5-yl)amino)phenyl)-5-methyl-2-thia-4-azabicyclo[4.1.0]hept-3-en-1-yl)methanol]: the IC50 was 0.00354 µM in assay [1] (BACE1 cell-based assay), 0.00043 µM in assay [2] (BACE1 FRET enzyme assay), > 133 µM in assay [5] (Cathepsin D FRET enzyme assay) and 0.0099 µM in assay [6] (BACE2 FRET enzyme assay). In addition, the “% Aβ 40 reduction in rat brain at 10 mpk” value in assay [3] is given as 23%. Also, in assay [4], the “% Aβ 40 reduction in rat CSF at 10 mpk” value amounted to 48%.
For the molecule `C#CCOc1cnc(C(=O)Nc2cc(F)c(F)c([C@@]3(CF)N=C(N)S[C@H]4C[C@H]43)c2)c(C)n1` [Example 84, N-(3-((1S,5S,6S)-3-amino-5-(fluoromethyl)-2-thia-4-azabicyclo[4.1.0]hept-3-en-5-yl)-4,5-difluorophenyl)-3-methyl-5-(2-propyn-1-yloxy)-2-pyrazinecarboxamide], the IC50 turned out to be 0.0216 µM in assay [1] (BACE1 cell-based assay), 0.00125 µM in assay [2] (BACE1 FRET enzyme assay), 974 µM in assay [5] (Cathepsin D FRET enzyme assay) and 0.0228 µM in assay [6] (BACE2 FRET enzyme assay). Further, in assay [3], the “% Aβ 40 reduction in rat brain at 10 mpk” value stood at 8%. Also, in assay [4], the “% Aβ 40 reduction in rat CSF at 10 mpk” value came out at 40%.
As for `C[C@]1(c2cc(Nc3ncnc4cc(C#N)cnc34)cc(F)c2F)N=C(N)S[C@@]2(C(F)F)C[C@@H]12` [Example 95, 4-((3-((1S,5S,6S)-3-amino-1-(difluoromethyl)-5-methyl-2-thia-4-azabicyclo[4.1.0]hept-3-en-5-yl)-4,5-difluorophenyl)amino)pyrido[3,2-d]pyrimidine-7-carbonitrile], the 50% inhibitory concentration (IC50) came to 0.0138 µM in assay [1] (BACE1 cell-based assay), 0.00426 µM in assay [2] (BACE1 FRET enzyme assay), 133 µM in assay [5] (Cathepsin D FRET enzyme assay) and 0.00837 µM in assay [6] (BACE2 FRET enzyme assay). In addition, the “% Aβ 40 reduction in rat brain at 10 mpk” value in assay [3] was 60%. The “% Aβ 40 reduction in rat CSF at 10 mpk” value in assay [4] is 69%.
Take `C#CCOc1cnc(C(=O)Nc2cnc(OC)c([C@@]3(C)N=C(N)S[C@@]4(CF)C[C@H]43)c2)cn1` [Example 612, N-(5-((1S,5S,6S)-3-amino-1-(fluoromethyl)-5-methyl-2-thia-4-azabicyclo[4.1.0]hept-3-en-5-yl)-6-methoxy-3-pyridinyl)-5-(2-propyn-1-yloxy)-2-pyrazinecarboxamide]: the IC50 came out at 0.00103 µM in assay [1], 0.00115 µM in assay [2], 196 µM in assay [5] and 0.0544 µM in assay [6]. Moreover, the “% Aβ 40 reduction in rat brain at 10 mpk” value in assay [3] was 82%. The “% Aβ 40 reduction in rat CSF at 10 mpk” value in assay [4] came to 84%.
On to `C#CCOc1cnc2c(Nc3cc(F)c(F)c([C@@]4(C)N=C(N)S[C@@]5(COC)C[C@H]54)c3)nccc2n1` [Example 627, N-(3-((1S,5S,6S)-3-amino-1-(methoxymethyl)-5-methyl-2-thia-4-azabicyclo[4.1.0]hept-3-en-5-yl)-4,5-difluorophenyl)-2-(2-propyn-1-yloxy)pyrido[3,4-b]pyrazin-5-amine], for which the IC50 in assay [1] was 0.00428 µM; in assay [2], 0.00114 µM; in assay [5], 1390 µM; in assay [6], 0.0384 µM. For the same molecule, the “% Aβ 40 reduction in rat brain at 10 mpk” value in assay [3] is given as 50%. Besides, the “% Aβ 40 reduction in rat CSF at 10 mpk” value in assay [4] was determined as 59%.
Regarding `COC[C@]12C[C@H]1[C@@](C)(c1cc(Nc3nccc4nc(OCc5cocn5)cnc34)cc(F)c1F)N=C(N)S2` [Example 628, N-(3-((1S,5S,6S)-3-amino-1-(methoxymethyl)-5-methyl-2-thia-4-azabicyclo[4.1.0]hept-3-en-5-yl)-4,5-difluorophenyl)-2-(1,3-oxazol-4-ylmethoxy)pyrido[3,4-b]pyrazin-5-amine], the IC50 in assay [1] came out at 0.0148 µM; in assay [2], 0.00324 µM; in assay [5] it was 443 µM; in assay [6] it was 0.0383 µM. The “% Aβ 40 reduction in rat brain at 10 mpk” value in assay [3] worked out at 50%. Moreover, the “% Aβ 40 reduction in rat CSF at 10 mpk” value in assay [4] is 59%.
In the case of `COC[C@]12C[C@H]1[C@@](C)(c1cc(Nc3nccc4nc(OCc5ncco5)cnc34)cc(F)c1F)N=C(N)S2` [Example 631, N-(3-((1S,5S,6S)-3-amino-1-(methoxymethyl)-5-methyl-2-thia-4-azabicyclo[4.1.0]hept-3-en-5-yl)-4,5-difluorophenyl)-2-(1,3-oxazol-2-ylmethoxy)pyrido[3,4-b]pyrazin-5-amine], the IC50 in assay [1] was found to be 0.00325 µM; in assay [2], 0.00173 µM; in assay [5], 475 µM; in assay [6], 0.055 µM. Besides, the “% Aβ 40 reduction in rat brain at 10 mpk” value in assay [3] was found to be 47%. Also, in assay [4], the “% Aβ 40 reduction in rat CSF at 10 mpk” value worked out at 52%.
For the molecule `Cc1cc(OCc2ncco2)cnc1C(=O)Nc1cc(F)c(F)c([C@@]2(C)N=C(N)S[C@@]3(CF)C[C@H]32)c1` [Example 645, N-(3-((1S,5S,6S)-3-amino-1-(fluoromethyl)-5-methyl-2-thia-4-azabicyclo[4.1.0]hept-3-en-5-yl)-4,5-difluorophenyl)-3-methyl-5-(1,3-oxazol-2-ylmethoxy)-2-pyridinecarboxamide], the 50% inhibitory concentration (IC50) in assay [1] was found to be 0.0246 µM; in assay [2], 0.00337 µM; in assay [5], 477 µM; in assay [6] it was 0.143 µM. Besides, in assay [3], the “% Aβ 40 reduction in rat brain at 10 mpk” value is 34%. Moreover, the “% Aβ 40 reduction in rat CSF at 10 mpk” value in assay [4] amounted to 53%.
For the molecule `C#CCOc1cnc2c(Nc3cnc(F)c([C@@]4(C)N=C(N)S[C@@]5([C@@H](O)C(F)(F)F)C[C@H]54)c3)nccc2n1` [Example 660, (1S)-1-((1S,5S,6S)-3-amino-5-(2-fluoro-5-((2-(2-propyn-1-yloxy)pyrido[3,4-b]pyrazin-5-yl)amino)-3-pyridinyl)-5-methyl-2-thia-4-azabicyclo[4.1.0]hept-3-en-1-yl)-2,2,2-trifluoroethanol], the IC50 was determined as 0.00345 µM in assay [1], 0.00133 µM in assay [2], 554 µM in assay [5] and 0.0235 µM in assay [6]. For the same molecule, the “% Aβ 40 reduction in rat brain at 10 mpk” value in assay [3] came out at 26%. For the same molecule, the “% Aβ 40 reduction in rat CSF at 10 mpk” value in assay [4] came out at 38%.
As to `C#CCOc1cnc2c(Nc3cnc(F)c([C@@]4(C)N=C(N)S[C@@]5(CO)C[C@H]54)c3)nccc2n1` [Example 662, ((1S,5S,6S)-3-amino-5-(2-fluoro-5-((2-(2-propyn-1-yloxy)pyrido[3,4-b]pyrazin-5-yl)amino)-3-pyridinyl)-5-methyl-2-thia-4-azabicyclo[4.1.0]hept-3-en-1-yl)methanol], the IC50 amounted to 0.00049 µM in assay [1], 0.000437 µM in assay [2], 1060 µM in assay [5] and 0.0199 µM in assay [6]. For the same molecule, in assay [3], the “% Aβ 40 reduction in rat brain at 10 mpk” value is reported as 37%. Further, the “% Aβ 40 reduction in rat CSF at 10 mpk” value in assay [4] is on record as 40%.
